From PubChem BioAssay (NCI)
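Protocol summary: plate cells (96-well), add compound at 5 concentrations, incubate 48 h, interpolate endpoints linearly. TGI is the concentration that stops growth completely.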

Experiments:
Assay in all cases: inhibition of tumour cell growth, NCI panel, 48 h
SK-OV-3 ovarian = system: SK-OV-3 ovarian
TK-10 renal = system: TK-10 renal
SW-620 colon = system: SW-620 colon
MOLT-4 leukemia = system: MOLT-4 leukemia
HOP-92 NSCLC = system: HOP-92 NSCLC
CAKI-1 renal = system: CAKI-1 renal
RPMI-8226 leukemia = system: RPMI-8226 leukemia
PC-3 prostate = system: PC-3 prostate
HCC-2998 colon = system: HCC-2998 colon
KM12 colon = system: KM12 colon
ACHN renal = system: ACHN renal
OVCAR-5 ovarian = system: OVCAR-5 ovarian
NCI-H226 lung = system: NCI-H226 lung
SF-295 CNS = system: SF-295 CNS
U251 CNS = system: U251 CNS
SF-539 CNS = system: SF-539 CNS
COLO 205 colon = system: COLO 205 colon
SN12C renal = system: SN12C renal
HCT-116 colon = system: HCT-116 colon
MDA-MB-435 = system: MDA-MB-435
SNB-19 CNS = system: SNB-19 CNS
SK-MEL-5 melanoma = system: SK-MEL-5 melanoma
NCI/ADR-RES ovarian = system: NCI/ADR-RES ovarian
MDA-N = system: MDA-N
A549 NSCLC = system: A549 NSCLC
OVCAR-3 ovarian = system: OVCAR-3 ovarian
HS 578T breast = system: HS 578T breast
NCI-H522 lung = system: NCI-H522 lung
M14 melanoma = system: M14 melanoma
MDA-MB-231 breast = system: MDA-MB-231 breast
HCT-15 colon = system: HCT-15 colon
HOP-62 NSCLC = system: HOP-62 NSCLC
RXF 393 renal = system: RXF 393 renal
DU-145 prostate = system: DU-145 prostate
MCF7 breast = system: MCF7 breast
SK-MEL-2 melanoma = system: SK-MEL-2 melanoma
SR leukemia = system: SR leukemia
SF-268 CNS = system: SF-268 CNS
EKVX NSCLC = system: EKVX NSCLC
K-562 leukemia = system: K-562 leukemia
NCI-H460 lung = system: NCI-H460 lung
BT-549 breast = system: BT-549 breast
IGROV1 ovarian = system: IGROV1 ovarian
HT29 colon = system: HT29 colon
NCI-H23 lung = system: NCI-H23 lung
OVCAR-8 ovarian = system: OVCAR-8 ovarian
786-0 renal = system: 786-0 renal
SNB-75 CNS = system: SNB-75 CNS
SK-MEL-28 melanoma = system: SK-MEL-28 melanoma
HL-60(TB) leukemia = system: HL-60(TB) leukemia
A498 renal = system: A498 renal
UACC-257 melanoma = system: UACC-257 melanoma
UACC-62 melanoma = system: UACC-62 melanoma
UO-31 renal = system: UO-31 renal
OVCAR-4 ovarian = system: OVCAR-4 ovarian
T-47D breast = system: T-47D breast
LOX IMVI melanoma = system: LOX IMVI melanoma
CCRF-CEM leukemia = system: CCRF-CEM leukemia
MALME-3M melanoma = system: MALME-3M melanoma

Measured: TGI

Nc1ncnc2c1nc(-c1ccccc1)n2C1OC(CO)C(O)C1O (configuration not stated)
not listed: CCRF-CEM leukemia | MALME-3M melanoma
> 100 µM: all other assays above

C=CC1ON(C)CCc2cc(OC)c(OC)cc21 (configuration not stated)
not listed: SK-OV-3 ovarian | RXF 393 renal | SK-MEL-2 melanoma | OVCAR-4 ovarian
> 100 µM: all other assays above
